The values below come from PubChem BioAssay (NCI).

What all share (experiment): growth of human tumour cells (NCI), 48 h
Experiment [1] relates to A549 NSCLC.
Experiment [2] relates to RXF 393 renal.
Experiment [3] deals with PC-3 prostate.
Experiment [4] has as its system HOP-92 NSCLC.
Experiment [5] deals with MOLT-4 leukemia.
For experiment [6], the system named is CCRF-CEM leukemia.
Experiment [7] deals with DU-145 prostate.
Experiment [8] deals with HOP-62 NSCLC.
Experiment [9] concerns SW-620 colon.
The test system of experiment [10] is SK-OV-3 ovarian.

“And” between values parts separate entries of the source, which are not always exact repeats. Equal values may be shown once.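 Test compounds were applied to cells in 96-well plates for 48 hours at 5 doses. GI50 = concentration required for 50% inhibition of growth. TGI: concentration producing complete growth inhibition.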

As to `CCN1C(=O)N(CC)C2C1NN=c1s/c(=C\c3cccc([N+](=O)[O-])c3)c(=O)n12` (stereo unspecified), the GI50 in experiment [1] was 0.181 µM; in [2], 0.0708 µM; in experiment [3] it was 0.0853 µM; in experiment [4] it was 4.05 µM; in experiment [5] it was 0.24 µM; in [6], 0.116 µM. Also, the results for the GI50 in [7], in [8] and in [9] were 0.101 µM, 0.104 µM and 0.0468 µM, respectively. Besides, the TGI in [1], in [2], in experiment [3], in experiment [4], in experiment [5] and in experiment [6] was greater than 100 µM throughout. For the same compound, the TGI in [7], in experiment [8] and in [9] was greater than 100 µM each time.
`C[C@@](O)(/C=C/[C@H]1CC=CC(=O)O1)[C@@H](C[C@@H](O)\C=C/C=C\C=C\CO)OP(=O)(O)O`: the GI50 in [1] is 13.1 µM; in experiment [5] it was 13.4 µM and 3.71 µM; in [6], 3.52 µM; in experiment [8] it was 10.1 µM. Further, the TGI was 49.6 µM and 57 µM in experiment [1]; 31.4 µM in [10]; 23.8 µM and 13 µM in [2]; 12.4 µM in experiment [3]; 10.6 µM in [4]; 335 µM and 34.1 µM in [6]. In addition, the TGI in [7] is 32.5 µM; in [8], 29.5 µM and 12.1 µM; in [9], 70.9 µM.
In the case of `CC(OC(=O)N(N(CCCl)S(C)(=O)=O)S(C)(=O)=O)c1ccc([N+](=O)[O-])cc1` (stereo unspecified), the GI50 in experiment [1] is greater than 58.3 µM; in experiment [10], greater than 100 µM; in experiment [2] it was greater than 100 µM; in [3], greater than 66.7 µM; in experiment [4], greater than 100 µM; in [5], 43.1 µM. Further, the GI50 is 0.179 µM in [6], 24 µM in experiment [7], 29.4 µM in experiment [8] and greater than 67.9 µM in experiment [9]. Also, the TGI in experiment [1], in experiment [10], in experiment [2], in [3], in experiment [4] and in experiment [5] was greater than 100 µM throughout. Besides, the TGI in experiment [6] was 15.9 µM; in experiment [7], greater than 100 µM; in experiment [8], greater than 100 µM; in [9] it was greater than 100 µM.
`Oc1c2c(c(O)c3ccccc13)C1(N=N2)c2ccccc2Oc2ccccc21`: the TGI in [1] was 66.5 µM; in [10] it was 31.4 µM; in experiment [2], 4.65 µM; in experiment [3] it was 28.5 µM; in experiment [4] it was 31 µM; in experiment [5], greater than 100 µM. The TGI in experiment [6] is 29.9 µM; in [7], 37 µM; in experiment [8], 38.5 µM; in experiment [9], 18.1 µM.
As for `C#CC(=O)OCC#CCOC(=O)C#C`, the TGI in experiment [1] is greater than 100 µM; in experiment [10] it was greater than 100 µM; in [2] it was 36.9 µM; in experiment [3] it was greater than 100 µM; in experiment [4], 34.8 µM; in experiment [6] it was 35.4 µM. Further, the TGI in experiment [7] was 90.3 µM; in [8], 46.1 µM; in experiment [9] it was 40.6 µM.
Take `N=C(N)SCc1ccc([N+](=O)[O-])cc1[N+](=O)[O-]`: the GI50 is 21.6 µM in [1]; 20.8 µM in experiment [10]; 1.38 µM in experiment [2]; 13.4 µM in [3]; 2.4 µM in experiment [4]; 3.07 µM in [5]. In addition, the GI50 was 3.77 µM in experiment [6], 2.25 µM in experiment [7] and 33.9 µM in [8]. Further, the TGI in experiment [1] was determined as 66.4 µM; in experiment [10], 53.7 µM; in experiment [2], 4.13 µM; in experiment [3], 87.2 µM; in experiment [4], 9.91 µM; in [5] it was 20.2 µM. The TGI in experiment [6] was greater than 100 µM; in experiment [7], 9.95 µM; in [8] it was 79.1 µM.
In the case of `CSc1nc(N)c2c(n1)NC(c1ccccc1)C1CCc3ccccc3C1=N2` (stereo unspecified), the GI50 in experiment [1] is greater than 100 µM; in [10] it was greater than 100 µM; in [2] it was 4.71 µM; in experiment [3] it was 2.56 µM; in experiment [4], 3.08 µM; in experiment [5] it was 1.85 µM. Moreover, the results for the GI50 in [6], in experiment [7] and in experiment [8] were 3.33 µM, greater than 100 µM and greater than 100 µM, respectively. Also, the TGI in experiment [1] was greater than 100 µM; in experiment [10], greater than 100 µM; in experiment [2] it was greater than 100 µM; in experiment [3], greater than 100 µM; in experiment [4], greater than 100 µM; in experiment [5], 38.8 µM. Besides, the TGI in [6], in experiment [7] and in [8] was greater than 100 µM in each case.
For the compound `CC(=O)NC1=C(Sc2ccc(Cl)cc2)C(=O)c2ccccc2C1=O`, the TGI in experiment [1] is greater than 100 µM; in experiment [10] it was 29.1 µM; in experiment [2], 4.65 µM; in experiment [3], 11.7 µM; in experiment [4], 5.67 µM; in experiment [5], 1.7 µM. Besides, the TGI stood at 4.64 µM in [6], 30.5 µM in experiment [7] and 4.01 µM in [9].
In the case of `CCc1ncnc2cc(OCC3CO3)c(OC)cc12` (stereo unspecified), the TGI in experiment [1] is greater than 100 µM; in experiment [10], 73.6 µM; in experiment [2], 18.7 µM; in experiment [3] it was greater than 100 µM; in experiment [4], 26.7 µM; in [6], 27.2 µM. The TGI in experiment [7] was greater than 100 µM; in [8], 38.7 µM; in experiment [9], greater than 50.8 µM.
On to `CC(=O)c1cccc(NC(=O)c2ccc(NC3=C(Cl)C(=O)N(Cc4ccccc4)C3=O)cc2)c1`, for which the GI50 in experiment [1] is 25.8 µM; in experiment [10], greater than 100 µM; in [2], 24 µM; in [3] it was 15.9 µM; in experiment [4], 6.45 µM; in experiment [5], 2.21 µM. The GI50 was 13.4 µM in experiment [7] and 5.87 µM in [9]. In addition, the TGI in experiment [1] is greater than 100 µM; in experiment [10], greater than 100 µM; in [2], greater than 100 µM; in experiment [3], 36.4 µM; in [4] it was 22.8 µM; in experiment [5] it was greater than 100 µM. The TGI in [7] was 34.2 µM; in experiment [9] it was greater than 100 µM.
For the compound `N#C/C(=C\c1cccc2cnccc12)N1N=NC2C=CC=CC21` (stereo unspecified), the GI50 is 3.02 µM in [1]; 2.08 µM in [10]; 2.35 µM in experiment [2]; 2.76 µM in [3]; 0.532 µM in experiment [4]; 3.21 µM in experiment [5]. Moreover, the GI50 in experiment [7] is 3.55 µM; in experiment [8], 2.95 µM; in [9] it was 3.35 µM. Moreover, the TGI in experiment [1] was greater than 100 µM; in [10], 25.9 µM; in experiment [2], 6.97 µM; in experiment [3] it was greater than 100 µM; in experiment [4] it was 5.13 µM; in experiment [5], greater than 100 µM. For the same compound, the TGI is greater than 100 µM in [7], 46.1 µM in [8] and greater than 100 µM in [9].
In the case of `CCCC#CCOC(=O)c1cc([N+](=O)[O-])cc([N+](=O)[O-])c1`, the TGI in experiment [1], in experiment [10], in [3], in [4], in [5] and in experiment [6] was greater than 100 µM throughout. Also, the TGI in experiment [7], in [8] and in [9] was greater than 100 µM in each case.
`O=c1cc(O)c2c(O)cc(O)cc2o1`: the TGI in experiment [1], in [2], in experiment [3], in experiment [4], in experiment [5] and in experiment [6] was greater than 100 µM throughout. Besides, the TGI in experiment [7], in [8] and in experiment [9] was greater than 100 µM throughout.
For `Cn1c(C(C)(C)OC(=O)Oc2ccccc2)cnc1[N+](=O)[O-]`, the TGI in experiment [1] was greater than 100 µM; in experiment [10], greater than 100 µM; in [2] it was greater than 100 µM; in experiment [3] it was greater than 100 µM; in [4] it was greater than 100 µM; in [5], 45.8 µM. The TGI in experiment [7], in [8] and in [9] was greater than 100 µM in each case.
Regarding `O=S(=O)(NCCO)c1cc[c]([Sb](=[O])([OH])[OH])cc1`, the GI50 in [1], in experiment [2], in experiment [3], in [4], in experiment [5] and in experiment [7] was greater than 100 µM throughout. Also, the GI50 in experiment [8] and in experiment [9] was greater than 100 µM in each case. The TGI in experiment [1], in [2], in experiment [3], in experiment [4], in experiment [5] and in [7] was greater than 100 µM throughout. The TGI in experiment [8] and in experiment [9] was greater than 100 µM throughout.
